Measured values reported in US6353002B2, “Therapeutic agents” (Knoll Aktiengesellschaft, priority 1997, dated 2002).
Structures can show the parent of a compound that is named as a salt.

Columns and labels:
[1] = target: T1, 5-HT1A receptors (Rattus norvegicus, UniProt P19327); experiment: Inhibition of [3H]8-OH-DPAT binding to 5-HT1A receptors in rat hippocampal tissue; conditions: for Ki: ligand [3H]8-OH-DPAT 2 nM, 25° C., 30 minutes; for % displacement at 10^−6 M, 5-HT1A: single concentration 10^−6 M of test compound, ligand [3H]8-OH-DPAT
T1 construct: Hippocampal tissue from the brains of male Charles River CD rats; from tissue; host or cells: rat hippocampus membrane homogenate
T1 sequence (P19327 1-422): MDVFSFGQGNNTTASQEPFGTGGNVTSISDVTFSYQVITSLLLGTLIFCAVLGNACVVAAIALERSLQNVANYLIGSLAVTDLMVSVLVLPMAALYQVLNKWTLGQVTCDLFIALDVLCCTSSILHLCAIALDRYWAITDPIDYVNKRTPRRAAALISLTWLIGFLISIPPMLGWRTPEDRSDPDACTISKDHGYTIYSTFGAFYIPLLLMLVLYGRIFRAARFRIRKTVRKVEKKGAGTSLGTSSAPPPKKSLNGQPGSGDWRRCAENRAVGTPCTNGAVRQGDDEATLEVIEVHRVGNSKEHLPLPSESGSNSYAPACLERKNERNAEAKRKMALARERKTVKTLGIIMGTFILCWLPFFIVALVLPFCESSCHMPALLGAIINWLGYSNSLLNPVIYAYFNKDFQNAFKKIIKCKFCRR
Experimental: Hippocampal tissue from the brains of male Charles River CD rats weighing between 150-250 g were homogenised in ice-cold 50 mM Tris-HCl buffer (pH 7.7) when measured at 25° C., 1:40 w/v) and centrifuged at 30,000 g at 4° C. for 10 minutes. The pellet was rehomogenised in the same buffer, incubated at 37° C. for 10 minutes and centrifuged at 30,000 g at 4° C. for 10 minutes. The final pellet was resuspended in 50 mM Tris-HCl buffer (pH 7.7) containing 4 mM CaCl2, 0.1% L-ascorbic acid and 10 μM pargyline hydrochloride (equivalent to 6.25 mg wet weight of tissue/ml) and used immediately in the binding assay. Aliquots (400 μl; equivalent to 2.5 mg wet weight of tissue/tube) of this suspension were added to tubes containing the ligand (50 μl; 2 nM) and distilled water (50 μl; total binding) or 5-HT (50 μl; 10 μM; non-specific binding) or test compound (50 μl; at a single concentration of 10^−8 M or at 10 concentrations ranging from 10^−11−10^−3 M). The ligand was [^3H]8-hydroxy-2-(dipropylamino)tetralin ([^3H]8-OH-DPAT) and the mixture was incubated at 25° C. for 30 minutes before the incubation was terminated by rapid filtration.
The filters were washed with ice-cold Tris-HCl buffer and dried. The filters were punched out into vials, scintillation fluid added and radioactivity determined by liquid scintillation counting. The percentage displacement of specific binding of the tritiated ligand was calculated for the single concentration (10^−6 M) of test compound. Displacement curves were then produced for those compounds which displaced ≧50% of specific binding of the tritiated ligand at 10^−6 M using a range of concentrations of the compound. The concentration which gave 50% inhibition of specific binding (IC50) was obtained from the curve. The inhibition coefficient Ki was then calculated using the formula [formula]
in which [ligand] is the concentration of the tritiated ligand used and KD is the equilibrium dissociation constant for the ligand.

[2] = target: D2-like dopamine receptors (Rattus norvegicus, UniProt P61169); experiment: Inhibition of tritiated (S)-sulpiride binding to D2-like dopamine receptors in rat striatal tissue; conditions: ligand tritiated (S)-sulpiride 1 nM, 4° C., 40 minutes
Experimental: Striatal tissue from the brains of male Charles River CD rats weighing between 140-250 g were homogenised in ice-cold 50 mM Tris-HCl buffer (pH 7.7 when measured at 25° C.) and centrifuged at 40,000 g for 10 minutes. The pellet was resuspended in Tris salts buffer (50 mM Tris-HCl buffer containing 120 mM NaCl, 5 mM KCl, 2 mM CaCl2 and 1 mM MgCl2 with the addition of 6 mM ascorbic acid; pH 7.7 when measured at 25° C.), and again centrifuged at 40,000 g for 10 minutes. The final pellet was stored at −80° C. Before each test the pellet was resuspended in Tris salts buffer (equivalent to 2 mg wet weight of tissue/ml). […]
The filters were washed with ice-cold Tris-HCl buffer and dried. The filters were punched out in to vials, scintillation fluid added and were left for about 20 hours before being counted by scintillation spectrophotometry. The percentage displacement of specific binding of the tritiated ligand was calculated for the single concentration (10^−6M) of test compound. […] The inhibition coefficient Ki then calculated using the formula [formula] […]

Chain of D2-like dopamine receptors (P61169 whole entry): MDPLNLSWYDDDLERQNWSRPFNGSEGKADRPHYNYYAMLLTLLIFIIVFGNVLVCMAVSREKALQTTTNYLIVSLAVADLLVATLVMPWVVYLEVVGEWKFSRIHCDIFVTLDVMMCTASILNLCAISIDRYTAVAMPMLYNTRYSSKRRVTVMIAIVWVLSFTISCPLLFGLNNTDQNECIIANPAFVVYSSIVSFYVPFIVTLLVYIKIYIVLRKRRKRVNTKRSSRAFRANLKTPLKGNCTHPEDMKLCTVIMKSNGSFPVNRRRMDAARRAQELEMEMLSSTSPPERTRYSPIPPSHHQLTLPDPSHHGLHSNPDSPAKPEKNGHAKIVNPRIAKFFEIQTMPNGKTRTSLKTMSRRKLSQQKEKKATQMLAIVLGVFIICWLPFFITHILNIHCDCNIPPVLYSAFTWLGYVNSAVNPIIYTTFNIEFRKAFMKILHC

Row | SMILES | melting point | Ki [1] | also measured
1 | Oc1ccccc1N1CCC(CNC[C@H]2COc3ccc4occc4c3O2)CC1 (as salt: fumarate) (hydrate or solvate) [Example 7, (S)-2-{4-[(2,3-Dihydrofuro[3,2-f]-1,4-benzodioxin-2-ylmethyl)-aminomethyl]piperidino}phenol monofumarate 1.1 hydrate, 0.25 ethanol solvate] | 88 to 89 °C | – | –
2 | COc1ccccc1N1CCC(CNC[C@H]2COc3ccc4scc(Cl)c4c3O2)CC1 (as salt: fumarate) [Example 1, (S)-N-(9-chloro-2,3-dihydrothieno[3,2-f]-1,4-benzodioxin-2-ylmethyl)-1-[1-(2-methoxyphenyl)piperid-4-yl]methylamine 0.5 fumarate] | 171 to 172 °C | – | –
3 | COc1ccccc1N1CCC(CNC[C@H]2COc3ccc4[nH]ccc4c3O2)CC1 (hydrate or solvate) [Example 4, (S)-N-(2,3-dihydro-7H-1,4-dioxino[2,3-e]indol-2-ylmethyl)-1-[1-(2-methoxyphenyl)piperid-4-yl]methylamine 0.1 hydrate] | 162 to 163 °C | – | –
4 | COc1ccccc1N1CCC(CNC[C@H]2COc3ccc4occc4c3O2)CC1.O.O=C(O)/C=C/C(=O)O (hydrate or solvate) [Example 6, (S)-N-(2,3-dihydrofuro[3,2-f]-1,4-benzodioxin-2-ylmethyl)-1-[1-(2-methoxyphenyl)piperid-4-yl]methylamine monofumarate monohydrate] | 95 to 96 °C | – | –
5 | COc1ccccc1N1CCC(CNC[C@H]2COc3ccc4scc(Cl)c4c3O2)CC1 [Example 1, (S)-N-(9-chloro-2,3-dihydrothieno[3,2-f]-1,4-benzodioxin-2-ylmethyl)-1-[1-(2-methoxyphenyl)piperid-4-yl]methylamine 0.5 fumarate] | – | 36 nM | –
6 | COc1ccccc1N1CCC(CNC[C@H]2COc3ccc4sccc4c3O2)CC1.O=C(O)/C=C/C(=O)O [Example 2, (S)-N-(2,3-dihydrothieno[3,2-f]-1,4-benzodioxin-2-ylmethyl)-1-[1-(2-methoxyphenyl)piperid-4-yl]methylamine monofumarate] | 180 to 182 °C | 9.7 nM | –
7 | CCOC(=O)c1cc2c3c(ccc2[nH]1)OC[C@H](CNCC1CCN(c2ccccc2OC)CC1)O3 [Example 3, ethyl (S)-2,3-dihydro-2-(N-{[1-(2-methoxyphenyl)piperid-4-yl]methyl}aminomethyl)-7H-1,4-dioxino[2,3-e]indole-8-carboxylate 0.05 dichloromethane solvate] | – | – | % displacement at 10^−6 M, 5-HT1A [1]: 99%; Ki [2]: 106 nM
8 | COc1ccccc1N1CCC(CNC[C@H]2COc3ccc4[nH]ccc4c3O2)CC1 [Example 4, (S)-N-(2,3-dihydro-7H-1,4-dioxino[2,3-e]indol-2-ylmethyl)-1-[1-(2-methoxyphenyl)piperid-4-yl]methylamine 0.1 hydrate] | – | – | % displacement at 10^−6 M, 5-HT1A [1]: 99%
9 | COc1ccccc1N1CCC(CNC[C@H]2COc3ccc4[nH]ncc4c3O2)CC1 [Example 5, (S)-N-(2,3-dihydro-7H-1,4-dioxino[2,3-e]indazol-2-ylmethyl)-1-[1-(2-methoxyphenyl)piperid-4-yl]methylamine] | – | 1.2 nM | –
10 | COc1ccccc1N1CCC(CNC[C@H]2COc3ccc4occc4c3O2)CC1 [Example 6, (S)-N-(2,3-dihydrofuro[3,2-f]-1,4-benzodioxin-2-ylmethyl)-1-[1-(2-methoxyphenyl)piperid-4-yl]methylamine monofumarate monohydrate] | – | 1.7 nM | –
11 | Oc1ccccc1N1CCC(CNC[C@H]2COc3ccc4occc4c3O2)CC1 [Example 7, (S)-2-{4-[(2,3-Dihydrofuro[3,2-f]-1,4-benzodioxin-2-ylmethyl)-aminomethyl]piperidino}phenol monofumarate 1.1 hydrate, 0.25 ethanol solvate] | – | 3.6 nM | –
12 | COc1ccccc1N1CCC(CNC[C@H]2COc3ccc4c(c3O2)OCO4)CC1 [Example 8, (S)-N-(7,8-methylenedioxy-2,3-dihydro-1,4-benzodioxin-2-ylmethyl)-1-[1-(2-methoxyphenyl)piperid-4-yl]methyl-amine monocitrate] | – | 1.1 nM | –
